Results on three compounds are retold here after patent publication US12692269B2, “Therapeutic compounds” (Genentech, Inc., priority 2019, dated 2026).

As a reminder, the EC50 is the concentration giving half of the maximal effect.

Holding throughout (assay type): binding
In assay [1] the target is TEAD3 TAZ (amino acids 13-57) (Homo sapiens, UniProt Q99594). The experiment in a line: TEAD3-TAZ HTRF (TR-FRET) protein-protein interaction assay. Conditions: for TEAD3 TAZ HTRF combined: Max % Inhibition: TEAD3, TAZ peptide; for EC50: TEAD3-TAZ HTRF, TR-FRET 665 nm/615 nm, read-out: TEAD3 TAZ HTRF combined: EC50. The procedure, abridged: (§1)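 His-tagged TEAD YAP-binding domain (aa 217-447) pre-bound to Eu anti-His antibody, then incubated 30 min with compound before adding biotinylated YAP (aa 50-100) or TAZ (aa 13-57) peptide with streptavidin-XL665. After 60 min at room temperature, TR-FRET 665/615 nm ratio read; IC50/EC50 from four-parameter fit.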
(In general: In TR-FRET formats the signal depends on donor and acceptor labels being close together.)

Assay [2] concerns the target TEAD1 TAZ (amino acids 13-57) (Homo sapiens, UniProt P28347). The experiment in a line: TEAD1-TAZ HTRF (TR-FRET) protein-protein interaction assay. The following applies: for TEAD1 TAZ HTRF combined: Max % Inhibition: TEAD1, TAZ peptide; for EC50: TEAD1-TAZ HTRF, TR-FRET 665 nm/615 nm, read-out: TEAD1 TAZ HTRF combined: EC50. The gist of the method: as §1
The target of assay [3] is TEAD2 TAZ (amino acids 13-57) (Homo sapiens, UniProt Q15562). The assay can be described thus: TEAD2-TAZ HTRF (TR-FRET) protein-protein interaction assay. The following applies: for TEAD2 TAZ HTRF combined: Max % Inhibition: TEAD2, TAZ peptide; for EC50: TEAD2-TAZ HTRF, TR-FRET 665 nm/615 nm, read-out: TEAD2 TAZ HTRF combined: EC50. The procedure, abridged:
as §1

Assay [4] deals with TEAD4 TAZ (amino acids 13-57) (Homo sapiens, UniProt Q15561). The assay can be described thus: TEAD4-TAZ HTRF (TR-FRET) protein-protein interaction assay. The following applies: for TEAD4 TAZ HTRF combined: Max % Inhibition: TEAD4, TAZ peptide; for EC50: TEAD4-TAZ HTRF, TR-FRET 665 nm/615 nm, read-out: TEAD4 TAZ HTRF combined: EC50. The gist of the method:
as §1

The target in assay [5] is TEAD1 YAP50-100 (Homo sapiens, UniProt P28347). The experiment in a line: TEAD1-YAP HTRF (TR-FRET) protein-protein interaction assay. The following applies: TEAD1, YAP peptide 50-100, HTRF; for EC50: read-out: TEAD1 YAP50-100 HTRF combined: EC50. The gist of the method: as §1
The target in assay [6] is TEAD2 YAP50-100 (Homo sapiens, UniProt Q15562). The experiment in a line: TEAD2-YAP HTRF (TR-FRET) protein-protein interaction assay. The following applies: TEAD2, YAP peptide 50-100, HTRF; for EC50: read-out: TEAD2 YAP50-100 HTRF combined: EC50. The procedure, abridged:
as §1

Assay [7] deals with TEAD4 YAP50-100 (Homo sapiens, UniProt Q15561). The assay can be described thus: TEAD4-YAP HTRF (TR-FRET) protein-protein interaction assay. Conditions: TEAD4, YAP peptide 50-100, HTRF; for EC50: read-out: TEAD4 YAP50-100 HTRF combined: EC50. The gist of the method: as §1
Assay [8] has as its target TEAD3 YAP50-100 (Homo sapiens, UniProt Q99594). The assay can be described thus: TEAD3-YAP HTRF (TR-FRET) protein-protein interaction assay. The following applies: TEAD3, YAP peptide 50-100, HTRF; for EC50: read-out: TEAD3 YAP50-100 HTRF combined: EC50. The procedure, abridged:
as §1

Chain of TEAD4 TAZ (amino acids 13-57) (Q15561 217-434 limits assumed): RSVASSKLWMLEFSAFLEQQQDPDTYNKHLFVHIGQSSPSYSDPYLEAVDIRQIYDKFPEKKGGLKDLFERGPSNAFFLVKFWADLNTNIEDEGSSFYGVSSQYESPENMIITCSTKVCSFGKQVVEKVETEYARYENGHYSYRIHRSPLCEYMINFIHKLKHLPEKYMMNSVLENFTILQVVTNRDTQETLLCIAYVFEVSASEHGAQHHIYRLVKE
Chain of TEAD4 YAP50-100 (Q15561 217-434 limits assumed): as above
Chain of TEAD3 TAZ (amino acids 13-57) (Q99594 173-435 limits assumed): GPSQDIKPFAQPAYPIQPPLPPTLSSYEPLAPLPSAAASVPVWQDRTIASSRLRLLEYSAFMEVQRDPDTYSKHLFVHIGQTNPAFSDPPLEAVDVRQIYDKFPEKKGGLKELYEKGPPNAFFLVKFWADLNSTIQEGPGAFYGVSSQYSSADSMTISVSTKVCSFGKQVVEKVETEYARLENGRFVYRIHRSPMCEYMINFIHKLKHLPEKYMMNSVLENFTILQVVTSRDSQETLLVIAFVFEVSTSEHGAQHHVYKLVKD
Chain of TEAD3 YAP50-100 (Q99594 173-435 limits assumed): as above
Chain of TEAD2 YAP50-100 (Q15562 217-447): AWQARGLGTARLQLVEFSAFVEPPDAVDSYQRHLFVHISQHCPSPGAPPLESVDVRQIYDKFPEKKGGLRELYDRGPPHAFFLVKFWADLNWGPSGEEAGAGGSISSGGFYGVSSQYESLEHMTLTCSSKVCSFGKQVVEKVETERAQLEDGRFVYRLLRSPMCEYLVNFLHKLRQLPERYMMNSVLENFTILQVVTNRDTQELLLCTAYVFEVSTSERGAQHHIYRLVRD
Chain of TEAD2 TAZ (amino acids 13-57) (Q15562 217-447): as above
Chain of TEAD1 TAZ (amino acids 13-57) (P28347 167-426 limits assumed): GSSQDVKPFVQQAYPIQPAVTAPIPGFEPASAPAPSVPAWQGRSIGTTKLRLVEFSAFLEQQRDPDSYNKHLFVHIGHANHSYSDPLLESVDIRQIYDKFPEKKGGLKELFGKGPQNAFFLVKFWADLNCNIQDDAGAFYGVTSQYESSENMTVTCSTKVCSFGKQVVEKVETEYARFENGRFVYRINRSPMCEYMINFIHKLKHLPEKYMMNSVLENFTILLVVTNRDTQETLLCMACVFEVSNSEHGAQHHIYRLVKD
Chain of TEAD1 YAP50-100 (P28347 167-426 limits assumed): as above

For `O=C(c1c(-c2cnccn2)nn2c(=O)cc(-c3ccc(C4CCCCC4)c(F)c3)[nH]c12)N1CC(CF)C1` [Compound 23, 5-(4-Cyclohexyl-3-fluorophenyl)-3-(3-(fluoromethyl)azetidine-1-carbonyl)-2-(pyrazin-2-yl)pyrazolo[1,5-a]pyrimidin-7(4H)-one], in assay [1], the “TEAD3 TAZ HTRF combined: Max % Inhibition” value stood at 56.5% and the concentration giving a half-maximal response (EC50) stood at 110 nM. In assay [2], the “TEAD1 TAZ HTRF combined: Max % Inhibition” value came to 61.5% and the EC50 turned out to be 70 nM. Moreover, in assay [3], the “TEAD2 TAZ HTRF combined: Max % Inhibition” value was 55.5% and the EC50 stood at 10 nM. Moreover, in assay [4], the “TEAD4 TAZ HTRF combined: Max % Inhibition” value turned out to be 35.0% and the EC50 is 50 nM. Further, in assay [5], the “TEAD1 YAP50-100 HTRF combined: Max % Inhibition” value came to 70.0% and the EC50 came out at 40 nM. In addition, in assay [6], the “TEAD2 YAP50-100 HTRF combined: Max % Inhibition” value was 55.5% and the EC50 was 10 nM. Moreover, in assay [7], the “TEAD4 YAP50-100 HTRF combined: Max % Inhibition” value was found to be 39.5% and the EC50 was determined as 50 nM. Further, in assay [8], the “TEAD3 YAP50-100 HTRF combined: Max % Inhibition” value was 64.0% and the EC50 was determined as 110 nM.

Consider `O=C(c1c(-c2ncccn2)nn2c(=O)cc(-c3ccc(CC4CCCC4)cc3)[nH]c12)N1CC(CF)C1` [Compound 24, 5-(4-(Cyclopentylmethyl)phenyl)-3-(3-(fluoromethyl)azetidine-1-carbonyl)-2-(pyrimidin-2-yl) pyrazolo[1,5-a]pyrimidin-7(4H)-one], for which, in assay [1], the “TEAD3 TAZ HTRF combined: Max % Inhibition” value is on record as 43.0% and the EC50 was found to be 30 nM. Also, in assay [2], the “TEAD1 TAZ HTRF combined: Max % Inhibition” value came out at 57.0% and the EC50 was 20 nM. Besides, the “TEAD2 TAZ HTRF combined: Max % Inhibition” value in assay [3] stood at 66.5%. Moreover, in assay [4], the “TEAD4 TAZ HTRF combined: Max % Inhibition” value came to 54.0% and the EC50 was determined as 10 nM. Further, in assay [5], the “TEAD1 YAP50-100 HTRF combined: Max % Inhibition” value turned out to be 63.0% and the EC50 worked out at 20 nM. For the same compound, the “TEAD2 YAP50-100 HTRF combined: Max % Inhibition” value in assay [6] was 66.0%. In addition, in assay [7], the “TEAD4 YAP50-100 HTRF combined: Max % Inhibition” value is listed as 51.0% and the EC50 turned out to be 10 nM. For the same compound, in assay [8], the “TEAD3 YAP50-100 HTRF combined: Max % Inhibition” value amounted to 52.0% and the EC50 worked out at 20 nM.

With `O=C(c1c(-c2cnccn2)nn2c(=O)cc(-c3ccc(CC4CCCC4)cc3)[nH]c12)N1CC(CF)C1` [Compound 25, 5-(4-(Cyclopentylmethyl)phenyl)-3-(3-(fluoromethyl)azetidine-1-carbonyl)-2-(pyrazin-2-yl)pyrazolo[1,5-a]pyrimidin-7(4H)-one], in assay [1], the “TEAD3 TAZ HTRF combined: Max % Inhibition” value worked out at 44.0% and the EC50 amounted to 40 nM. For the same compound, in assay [2], the “TEAD1 TAZ HTRF combined: Max % Inhibition” value is reported as 52.0% and the EC50 amounted to 40 nM. Besides, in assay [3], the “TEAD2 TAZ HTRF combined: Max % Inhibition” value came to 62.0% and the EC50 was determined as 10 nM. For the same compound, in assay [4], the “TEAD4 TAZ HTRF combined: Max % Inhibition” value worked out at 47.0% and the EC50 amounted to 20 nM. For the same compound, in assay [5], the “TEAD1 YAP50-100 HTRF combined: Max % Inhibition” value is on record as 60.0% and the EC50 was 30 nM. For the same compound, in assay [6], the “TEAD2 YAP50-100 HTRF combined: Max % Inhibition” value worked out at 63.5% and the EC50 is 10 nM. Besides, in assay [7], the “TEAD4 YAP50-100 HTRF combined: Max % Inhibition” value was determined as 45.5% and the EC50 came out at 20 nM. Also, in assay [8], the “TEAD3 YAP50-100 HTRF combined: Max % Inhibition” value was found to be 50.0% and the EC50 was 40 nM.
